According to ChEMBL document CHEMBL5537135, “Novel antimicrobial peptides modified with fluorinated sulfono-γ-AA having high stability and targeting multidrug-resistant bacteria infections” (Eur J Med Chem, 2024):
Converted amounts (≈) assume the structure as drawn. The source made the active and inactive calls. No cut-off for these calls is given here. Numbered stars: 1 amine (or outer) side, 2 acyl side, 3 side chain; on linkers, the order of the positions; unused ones are H or OH. Square brackets hold non-standard residues; d marks the D form. Peptide text beside a SMILES is read from it. * marks the point of attachment. X4 = N[C@@H](Cc1ccccc1)CN(CC(=O)[*:2])[*:1]; X1 = O=S(=O)(c1ccc(C(F)(F)F)cc1)*

What was measured:
[1] = Toxicity in mouse assessed as sluggish behavior at 20 mg/kg, ip measured for 30 to 60 mins; type: organism-based; settings: in vivo, time 30-60 min
Staphylococcus aureus [2] = experiment: Antimicrobial activity against methicillin-resistant Staphylococcus aureus ATCC 33591 in presence of human serum; type: functional, organism-based
Pseudomonas aeruginosa [3] = experiment: Antimicrobial activity against multidrug-resistant Pseudomonas aeruginosa 516 assessed as inhibition of visible bacterial growth incubated for 18 hrs by broth-dilution method; type: functional
Pseudomonas aeruginosa [4] = experiment: Antimicrobial activity against multidrug-resistant Pseudomonas aeruginosa 125 assessed as inhibition of visible bacterial growth incubated for 18 hrs by broth-dilution method; type: functional
Staphylococcus aureus [5] = experiment: Antimicrobial activity against methicillin-resistant Staphylococcus aureus 5 assessed as inhibition of visible bacterial growth incubated for 18 hrs by broth-dilution method; type: functional
Staphylococcus aureus [6] = experiment: Antimicrobial activity against methicillin-resistant Staphylococcus aureus 8 assessed as inhibition of visible bacterial growth incubated for 18 hrs by broth-dilution method; type: functional
Staphylococcus aureus [7] = experiment: Antimicrobial activity against methicillin-resistant Staphylococcus aureus 10 assessed as inhibition of visible bacterial growth incubated for 18 hrs by broth-dilution method; type: functional
Staphylococcus aureus [8] = experiment: Antimicrobial activity against methicillin-resistant Staphylococcus aureus 3 assessed as inhibition of visible bacterial growth incubated for 18 hrs by broth-dilution method; type: functional
Erythrocyte = experiment: Hemolytic activity against mouse Red blood cell incubated for 1 hr; type: toxicity, cell-based
Staphylococcus aureus [9] = experiment: Antimicrobial activity against Staphylococcus aureus ATCC 25923 in presence of human serum; type: functional, organism-based
Staphylococcus aureus [10] = experiment: Antimicrobial activity against Staphylococcus aureus ATCC 25923 in presence of mouse serum; type: functional, organism-based
Pseudomonas aeruginosa [11] = experiment: Antimicrobial activity against Pseudomonas aeruginosa ATCC 27853 assessed as inhibition of visible bacterial growth incubated for 18 hrs by broth-dilution method; type: functional
Pseudomonas aeruginosa [12] = experiment: Antimicrobial activity against Pseudomonas aeruginosa ATCC 27853 in presence of mouse serum; type: functional, organism-based
Pseudomonas aeruginosa [13] = experiment: Antimicrobial activity against multidrug-resistant Pseudomonas aeruginosa 119 assessed as inhibition of visible bacterial growth incubated for 18 hrs by broth-dilution method; type: functional
[14] = Stability in human serum assessed as half life measured for 5 hrs by RP-HPLC analysis; type: ADME, cell-free
Staphylococcus aureus [15] = experiment: Antimicrobial activity against methicillin-resistant Staphylococcus aureus 4 assessed as inhibition of visible bacterial growth incubated for 18 hrs by broth-dilution method; type: functional
[16] = system: Staphylococcus epidermidis; experiment: Antimicrobial activity against Staphylococcus epidermidis ATCC 12228 assessed as inhibition of visible bacterial growth incubated for 18 hrs by broth-dilution method; type: functional
Staphylococcus aureus [17] = experiment: Antimicrobial activity against methicillin-resistant Staphylococcus aureus ATCC 33591 assessed as inhibition of visible bacterial growth incubated for 18 hrs by broth-dilution method; type: functional
Escherichia coli = experiment: Antimicrobial activity against Escherichia coli ATCC 25922 assessed as inhibition of visible bacterial growth incubated for 18 hrs by broth-dilution method; type: functional
Pseudomonas aeruginosa [18] = experiment: Antimicrobial activity against multidrug-resistant Pseudomonas aeruginosa 050 assessed as inhibition of visible bacterial growth incubated for 18 hrs by broth-dilution method; type: functional
Pseudomonas aeruginosa [19] = experiment: Antimicrobial activity against multidrug-resistant Pseudomonas aeruginosa 073 assessed as inhibition of visible bacterial growth incubated for 18 hrs by broth-dilution method; type: functional
Staphylococcus aureus [20] = experiment: Antimicrobial activity against Staphylococcus aureus ATCC 25923 assessed as reduction in bacterial growth in presence of Ca2+; type: functional
Bacillus subtilis = experiment: Antimicrobial activity against Bacillus subtilis ATCC 23857 assessed as inhibition of visible bacterial growth incubated for 18 hrs by broth-dilution method; type: functional
Acinetobacter baumannii = experiment: Antimicrobial activity against Acinetobacter baumannii ATCC 19606 assessed as inhibition of visible bacterial growth incubated for 18 hrs by broth-dilution method; type: functional
Staphylococcus aureus [21] = experiment: Antimicrobial activity against methicillin-resistant Staphylococcus aureus 2 assessed as inhibition of visible bacterial growth incubated for 18 hrs by broth-dilution method; type: functional
Pseudomonas aeruginosa [22] = experiment: Antimicrobial activity against multidrug-resistant Pseudomonas aeruginosa 156 assessed as inhibition of visible bacterial growth incubated for 18 hrs by broth-dilution method; type: functional
Pseudomonas aeruginosa [23] = experiment: Antimicrobial activity against multidrug-resistant Pseudomonas aeruginosa 157 assessed as inhibition of visible bacterial growth incubated for 18 hrs by broth-dilution method; type: functional
Staphylococcus aureus [24] = experiment: Antimicrobial activity against methicillin-resistant Staphylococcus aureus 6 assessed as inhibition of visible bacterial growth incubated for 18 hrs by broth-dilution method; type: functional
Pseudomonas aeruginosa [25] = experiment: Antimicrobial activity against multidrug-resistant Pseudomonas aeruginosa 061 assessed as inhibition of visible bacterial growth incubated for 18 hrs by broth-dilution method; type: functional
Staphylococcus aureus [26] = experiment: Antimicrobial activity against methicillin-resistant Staphylococcus aureus 9 assessed as inhibition of visible bacterial growth incubated for 18 hrs by broth-dilution method; type: functional
Pseudomonas aeruginosa [27] = experiment: Antimicrobial activity against Pseudomonas aeruginosa ATCC 27853 in presence of human serum; type: functional, organism-based
Staphylococcus aureus [28] = experiment: Antimicrobial activity against methicillin-resistant Staphylococcus aureus 1 assessed as inhibition of visible bacterial growth incubated for 18 hrs by broth-dilution method; type: functional
Staphylococcus aureus [29] = experiment: Antimicrobial activity against methicillin-resistant Staphylococcus aureus ATCC 33591 in presence of mouse serum; type: functional, organism-based
Salmonella typhimurium = experiment: Antimicrobial activity against Salmonella typhimurium ATCC 14028 assessed as inhibition of visible bacterial growth incubated for 18 hrs by broth-dilution method; type: functional, Salmonella enterica subsp. enterica serovar Typhimurium
Staphylococcus aureus [30] = experiment: Antimicrobial activity against Staphylococcus aureus ATCC 25923 assessed as inhibition of visible bacterial growth incubated for 18 hrs by broth-dilution method; type: functional
Staphylococcus aureus [31] = experiment: Antimicrobial activity against Staphylococcus aureus ATCC 25923 assessed as fold change in MIC in presence of salt solution; type: functional
Pseudomonas aeruginosa [32] = experiment: Antimicrobial activity against multidrug-resistant Pseudomonas aeruginosa 085 assessed as inhibition of visible bacterial growth incubated for 18 hrs by broth-dilution method; type: functional
Staphylococcus aureus [33] = experiment: Antimicrobial activity against methicillin-resistant Staphylococcus aureus 7 assessed as inhibition of visible bacterial growth incubated for 18 hrs by broth-dilution method; type: functional
Pseudomonas aeruginosa [34] = experiment: Antimicrobial activity against multidrug-resistant Pseudomonas aeruginosa 124 assessed as inhibition of visible bacterial growth incubated for 18 hrs by broth-dilution method; type: functional
Cell membrane [35] = experiment: Induction of cytoplasmic membrane depolarization in methicillin-resistant Staphylococcus aureus ATCC 33591 assessed as increase in fluorescence intensity at 4 times MIC by DiSC35 dye-based fluorescence assay
Pseudomonas aeruginosa [36] = experiment: Antibacterial activity against Pseudomonas aeruginosa ATCC 27853 infected in C57BL/6 mouse pneumonia model assessed as log reduction in bacterial load in lung at 5 mg/kg, ip administered for 1 to 48 hrs and measured after 3 days; type: functional; settings: time 1-120 hrs
Pseudomonas aeruginosa [37] = experiment: Antibacterial activity against Pseudomonas aeruginosa ATCC 27853 infected in C57BL/6 mouse pneumonia model assessed as […] at 5 mg/kg, ip administered for 1 to 48 hrs and measured after 3 days by H and E staining based analysis; type: functional, organism-based; settings: time 1-120 hrs
Cell membrane [38] = experiment: Induction of membrane depolarization in Pseudomonas aeruginosa ATCC 27853 assessed as increase in fluorescence intensity at 4 times MIC by DiSC35 dye-based fluorescence assay; type: cell membranes
Staphylococcus aureus [39] = experiment: Drug resistance, ratio of MIC for methicillin-resistant Staphylococcus aureus ATCC 33591 after 20 days exposure to MIC for methicillin-resistant Staphylococcus aureus ATCC 33591 during first exposure; type: functional, organism-based; settings: time 20.0 day
Pseudomonas aeruginosa [40] = experiment: Bactericidal activity against Pseudomonas aeruginosa ATCC 27853 assessed as reduction in viable bacteria at 4 times MIC measured for 30 min by time-kill assay; type: functional, organism-based

Row | Compound | MIC (Pseudomonas aeruginosa [3]) [µg/mL] | MIC (Pseudomonas aeruginosa [4]) [µg/mL] | MIC (Staphylococcus aureus [5]) [µg/mL] | MIC (Staphylococcus aureus [6]) [µg/mL] | MIC (Staphylococcus aureus [7]) [µg/mL] | MIC (Staphylococcus aureus [8]) [µg/mL] | MIC (Pseudomonas aeruginosa [11]) [µg/mL] | MIC (Pseudomonas aeruginosa [13]) [µg/mL] | MIC (Staphylococcus aureus [15]) [µg/mL] | MIC [16] [µg/mL] | MIC (Staphylococcus aureus [17]) [µg/mL] | MIC (Escherichia coli) [µg/mL] | MIC (Pseudomonas aeruginosa [18]) [µg/mL] | MIC (Pseudomonas aeruginosa [19]) [µg/mL] | MIC (Bacillus subtilis) [µg/mL] | MIC (Acinetobacter baumannii) [µg/mL] | MIC (Staphylococcus aureus [21]) [µg/mL] | MIC (Pseudomonas aeruginosa [22]) [µg/mL] | MIC (Pseudomonas aeruginosa [23]) [µg/mL] | MIC (Staphylococcus aureus [24]) [µg/mL] | other results
1 | POLYMYXIN B [listing 1 of 2 here] | – | – | – | – | – | – | – | – | – | – | – | – | – | – | – | – | – | – | – | – | Activity [1]: Toxic
2 | CC(C)C[C@H](NC(=O)[C@H](CC(C)C)NC(=O)[C@H](CCCCN)NC(=O)[C@H](CCCCN)NC(=O)[C@H](CC(C)C)NC(=O)[C@H](C)NC(=O)[C@H](CCCCN)NC(=O)CN(C[C@@H](N)Cc1ccccc1)S(=O)(=O)c1ccc(C(F)(F)F)cc1)C(N)=O (X1-[X4]KALKKLL-NH2) | 8 (≈ 6.61 µM) | 8 (≈ 6.61 µM) | 8 (≈ 6.61 µM) | 8 (≈ 6.61 µM) | 8 (≈ 6.61 µM) | 8 (≈ 6.61 µM) | 8 (≈ 6.61 µM) | 4 (≈ 3.3 µM) | 8 (≈ 6.61 µM) | 8 (≈ 6.61 µM) | 8 (≈ 6.61 µM) | 16 (≈ 13.2 µM) | 8 (≈ 6.61 µM) | 8 (≈ 6.61 µM) | 4 (≈ 3.3 µM) | 16 (≈ 13.2 µM) | 8 (≈ 6.61 µM) | 16 (≈ 13.2 µM) | 4 (≈ 3.3 µM) | 8 (≈ 6.61 µM) | Activity (Staphylococcus aureus [2]): Active; MHC (Erythrocyte): 256 µg/mL; Activity (Staphylococcus aureus [9]): Active; Activity (Staphylococcus aureus [10]): inactive; Activity (Pseudomonas aeruginosa [12]): inactive; half-life [14]: 3.93 h; MIC (Staphylococcus aureus [20]): 32 µg/mL; MIC (Pseudomonas aeruginosa [25]): 4 µg/mL (≈ 3.3 µM); MIC (Staphylococcus aureus [26]): 8 µg/mL (≈ 6.61 µM); Activity (Pseudomonas aeruginosa [27]): Active; MIC (Staphylococcus aureus [28]): 4 µg/mL (≈ 3.3 µM); Activity (Staphylococcus aureus [29]): inactive; MIC (Salmonella typhimurium; Salmonella enterica): 16 µg/mL (≈ 13.2 µM); MIC (Staphylococcus aureus [30]): 8 µg/mL (≈ 6.61 µM); fold change (FC) (Staphylococcus aureus [31]): 0.25; MIC (Pseudomonas aeruginosa [32]): 8 µg/mL (≈ 6.61 µM); MIC (Staphylococcus aureus [33]): 8 µg/mL (≈ 6.61 µM); MIC (Pseudomonas aeruginosa [34]): 4 µg/mL (≈ 3.3 µM)
3 | POLYMYXIN B [listing 2 of 2 here] | 1 | 1 | 16 | 16 | 16 | 8 | 1 | 1 | 16 | 8 | 16 | 1 | 1 | 1 | 8 | 4 | 8 | 256 | 1 | 8 | Activity (Cell membrane [35]): inactive; log(activity) (Pseudomonas aeruginosa [36]): 4.54; Activity (Pseudomonas aeruginosa [37]): inactive; Activity (Cell membrane [38]): inactive; Ratio (Staphylococcus aureus [39]): 8; MIC (Pseudomonas aeruginosa [25]): 1 µg/mL; Activity (Pseudomonas aeruginosa [40]): Active; MIC (Staphylococcus aureus [26]): 16 µg/mL; MIC (Staphylococcus aureus [28]): 8 µg/mL; MIC (Salmonella typhimurium; Salmonella enterica subsp. enterica serovar Typhimurium): 2 µg/mL; MIC (Staphylococcus aureus [30]): 8 µg/mL; MIC (Pseudomonas aeruginosa [32]): 1 µg/mL; MIC (Staphylococcus aureus [33]): 16 µg/mL; MIC (Pseudomonas aeruginosa [34]): 1 µg/mL
